Experimental data from ChEMBL document CHEMBL3228010, “Potential antitumor agents. 29. Quantitative structure-activity relationships for the antileukemic bisquaternary ammonium heterocycles” (J Med Chem, 1979).

Tests used:
[1] = tested on: L1210; experiment: Antitumor activity against mouse L1210 cells […] in ip dosed C3H X DBA2 F1 hybrid mouse on day 0 and dosed at LD10 level once daily on days 1 to 5 assessed as increase in life span relative to control; assay type: functional
[2] = species: Bos taurus; experiment: Displacement of ethidium from calf thymus DNA by fluorimetric method
[3] = tested on: Mus musculus; experiment: Toxicity in ip dosed C3H X DBA2 F1 hybrid mouse […] with mouse L1210 cells on day 0 and dosed once daily on days 1 to 5 measured after 50 days; assay type: organism-based; settings: in vivo, 1200 h
[4] = tested on: L1210; experiment: Antitumor activity against mouse L1210 cells […] in ip dosed C3H X DBA2 F1 hybrid mouse on day 0 and dosed once daily on days 1 to 5 assessed as increase in life span relative to control; assay type: functional
[5] = Lipophilic-hydrophilic balance, Rm of the compound by partition chromatography; assay type: physicochemical
[6] = Displacement of ethidium from poly[d(A-T)]-poly[d(A-T)] DNA by fluorimetric method
[7] = Displacement of ethidium from poly[d(G-C)]-poly[d(G-C)] DNA (unknown origin) by fluorimetric method

Row | Structure (SMILES) | log(ILSmax) [1] | C50 [2] [µM] | LD10 [3] [mg/kg] | D40 [4] [mg/kg] | Rm [5] | C50 [6] [µM] | C50 [7] [µM]
1 | Cc1cc(C(=O)Nc2ccc(C(=O)Nc3ccc[n+](C)c3)cc2)ccc1C(=O)Nc1ccc(C(=O)Nc2ccc[n+](C)c2)cc1.Cc1ccc(S(=O)(=O)[O-])cc1.Cc1ccc(S(=O)(=O)[O-])cc1 | 2.09 | 1.2 | 14 | 5.7 | 0.06 | 1 | 2.4
2 | C[n+]1ccc(Nc2ccc(NC(=O)Nc3ccc(Nc4cc[n+](C)c5ccc(N)cc45)cc3)cc2)cc1.Cc1ccc(S(=O)(=O)[O-])cc1.Cc1ccc(S(=O)(=O)[O-])cc1 | 1.74 | 0.51 | 6 | 3 | 0.17 | 0.28 | 1.2
3 | C[n+]1ccc(Nc2ccc(C(=O)Nc3ccc(Nc4cc[n+](C)c5cc(N)ccc45)cc3)c(N)c2)cc1.Cc1ccc(S(=O)(=O)[O-])cc1.Cc1ccc(S(=O)(=O)[O-])cc1 | 2.38 | 0.44 | 20 | 1.7 | -0.12 | 0.14 | 0.77
4 | C[n+]1ccc(Nc2ccc(S(=O)(=O)Nc3ccc(Nc4c5ccccc5[n+](C)c5cc(N)ccc45)cc3)cc2)cc1.[O-][Cl+3]([O-])([O-])[O-].[O-][Cl+3]([O-])([O-])[O-] | 2.18 | 0.1 | 35 | 5 | 0.57 | 0.07 | 0.12
5 | C[n+]1ccc(Nc2ccc(C(=O)Nc3ccc(Nc4cc[n+](C)c5ccccc45)cc3)cc2)cc1.Cc1ccc(S(=O)(=O)[O-])cc1.Cc1ccc(S(=O)(=O)[O-])cc1 | 2.29 | 1.6 | 7.5 | 2.2 | 0.27 | 0.21 | 3
6 | C[n+]1ccc(Nc2ccc(NC(=O)/C=C/c3ccc(/C=C/C(=O)Nc4ccc(Nc5cc[n+](C)cc5)cc4)cc3)cc2)cc1.Cc1ccc(S(=O)(=O)[O-])cc1.Cc1ccc(S(=O)(=O)[O-])cc1 | 1.88 | 0.31 | 10 | 5.1 | -0.7 | 0.11 | 0.38
7 | C[n+]1ccc(Nc2ccc(C(=O)Nc3ccc(Nc4cc[n+](C)c5ccc(N)cc45)cc3)cc2)cc1.Cc1ccc(S(=O)(=O)[O-])cc1.Cc1ccc(S(=O)(=O)[O-])cc1 | 2.3 | 0.6 | 11 | 1.2 | 0.05 | 0.12 | 1.2
8 | C[n+]1c2ccccc2c(Nc2ccc(NC(=O)Nc3ccc(NC(=N)NC(=N)N)cc3)cc2)c2ccc(N)cc21.Cl.[Cl-] | 2.48 | 0.09 | 200 | 8 | 0.46 | 0.06 | 0.13
9 | C[n+]1cccc(NC(=O)c2ccc(NC(=O)c3ccc(C(=O)Nc4ccc(C(=O)Nc5ccc[n+](C)c5)c(N)c4)cc3)cc2N)c1.Cc1ccc(S(=O)(=O)[O-])cc1.Cc1ccc(S(=O)(=O)[O-])cc1 | 2.35 | 0.26 | 44 | 2.4 | -0.75 | 0.12 | 0.39
10 | C[n+]1cccc2cc(NC(=O)c3ccc(C(=O)Nc4ccc(NC(=O)c5ccc6c(ccc[n+]6C)c5)cc4)cc3)ccc21.Cc1ccc(S(=O)(=O)[O-])cc1.Cc1ccc(S(=O)(=O)[O-])cc1 | 1.65 | 0.3 | 90 | 80 | -0.57 | 0.35 | 0.8
11 | Br.C/C(=N\NC(=N)N)c1ccc(C(=O)Nc2ccc(Nc3cc[n+](C)c4cc(N)ccc34)cc2)cc1.[Br-] | 2.28 | 0.35 | 165 | 30 | -0.35 | 0.17 | 0.6
12 | C[n+]1ccc(Nc2ccc(NC(=O)c3ccc(/C=C/C4=NCCCN4)cc3)cc2)c2cc(N)ccc21.Cc1ccc(S(=O)(=O)O)cc1.Cc1ccc(S(=O)(=O)[O-])cc1 | 1.9 | 0.65 | 7 | 2 | 0.17 | 0.35 | 0.87
13 | COc1cc(NC(=O)c2ccc(Nc3cc[n+](C)cc3)cc2)ccc1Nc1cc[n+](C)c2cc(N)ccc12.[Br-].[Br-] | 2.23 | 0.69 | 14 | 3 | 0.14 | 0.15 | 1.18
14 | COc1cc(C(=O)Nc2ccc[n+](C)c2)ccc1NC(=O)c1ccc(C(=O)Nc2ccc(C(=O)Nc3ccc[n+](C)c3)cc2OC)cc1.Cc1ccc(S(=O)(=O)[O-])cc1.Cc1ccc(S(=O)(=O)[O-])cc1 | 1.89 | 0.84 | 25 | 13 | -0.41 | 0.72 | 0.9
15 | C[n+]1cccc(NC(=O)c2ccc(NC(=O)c3ccc(C(=O)Nc4ccc(Nc5cc[n+](C)c6ccc(N)cc56)cc4)cc3)cc2)c1.Cc1ccc(S(=O)(=O)[O-])cc1.Cc1ccc(S(=O)(=O)[O-])cc1 | 1.95 | 0.31 | 140 | 22.1 | -0.47 | 0.22 | 0.34
16 | C[n+]1ccc(Nc2ccc(NC(=O)/C=C/c3ccc(Nc4cc[n+](C)c5ccc(N)cc45)cc3)cc2)cc1.Cc1ccc(S(=O)(=O)[O-])cc1.Cc1ccc(S(=O)(=O)[O-])cc1 | 2.24 | 0.46 | 40 | 1.6 | 0.03 | 0.09 | 0.41
17 | Br.C/C(=N\NC(=N)N)c1ccc(NC(=O)c2ccc(Nc3cc[n+](C)c4ccc(N)cc34)cc2)cc1.[Br-] | 2.31 | 0.4 | 28 | 2.1 | -0.45 | 0.11 | 0.5
18 | C[n+]1cccc(NC(=O)c2ccc(NC(=O)/C=C/c3ccc(C(=O)Nc4ccc(C(=O)Nc5ccc[n+](C)c5)cc4)cc3)cc2)c1.Cc1ccc(S(=O)(=O)[O-])cc1.Cc1ccc(S(=O)(=O)[O-])cc1 | 1.99 | 0.3 | 100 | 21 | -0.95 | 0.22 | 0.23
19 | CC[n+]1cccc(NC(=O)c2ccc(NC(=O)c3ccc(NC(=O)c4ccc(C(=O)Nc5ccc[n+](CC)c5)cc4)cc3)cc2)c1.Cc1ccc(S(=O)(=O)[O-])cc1.Cc1ccc(S(=O)(=O)[O-])cc1 | 1.9 | 0.5 | 33 | 9.1 | -0.44 | 0.43 | 0.65
20 | CCC[n+]1cccc(NC(=O)c2ccc(NC(=O)c3ccc(C(=O)Nc4ccc(C(=O)Nc5ccc[n+](CCC)c5)c(N)c4)c(N)c3)cc2N)c1.Cc1ccc(S(=O)(=O)[O-])cc1.Cc1ccc(S(=O)(=O)[O-])cc1 | 2.1 | 0.26 | 10 | 2.2 | -0.51 | 0.08 | 0.48
21 | Br.C/C(=N\NC(=N)N)c1ccc(NC(=O)c2ccc(Nc3cc[n+](C)c4ccc(N)cc34)cc2N)cc1.[Br-] | 2.25 | 0.51 | 40 | 1.7 | -0.41 | 0.21 | 0.78
22 | CC[n+]1cccc2cc(NC(=O)c3ccc(-c4ccc(-c5ccc(-c6ccc(C(=O)Nc7ccc8c(ccc[n+]8CC)c7)cc6)cc5)cc4)cc3)ccc21.Cc1ccc(S(=O)(=O)[O-])cc1.Cc1ccc(S(=O)(=O)[O-])cc1 | 2.16 | 0.3 | 31 | 10.5 | -0.1 | 0.18 | 0.61
23 | C[n+]1ccc(Nc2ccc(/C=C/c3ccc(Nc4cc[n+](C)c5ccccc45)cc3)cc2)cc1.[Br-].[Br-] | 1.89 | 0.34 | 23 | 12 | 0.61 | 0.13 | 0.67
24 | C[n+]1cccc(-c2ccc(NC(=O)/C=C/c3ccc(C(=O)Nc4ccc(-c5ccc(-c6ccc(-c7ccc[n+](C)c7)cc6)cc5)cc4)cc3)cc2)c1.Cc1ccc(S(=O)(=O)[O-])cc1.Cc1ccc(S(=O)(=O)[O-])cc1 | 2.16 | 0.3 | 85 | 26.9 | -0.75 | 0.13 | 0.46
25 | C[n+]1ccc(Nc2ccc(C(=O)Nc3ccc(Nc4cc[n+](C)c5ccc(N)cc45)cc3)c(N)c2)cc1.[Br-].[Br-] | 2.43 | 0.6 | 20 | 1 | -0.3 | 0.15 | 0.91
26 | C[n+]1ccc(Nc2ccc(NC(=O)/C=C/c3ccc(Nc4cc[n+](C)c5ccccc45)cc3)cc2)cc1.[Br-].[Br-] | 2.22 | 0.38 | 22 | 1.3 | 0.28 | 0.15 | 0.71
